Laboratory results: patent US20150141506A1, “INDANE DIMERS FOR USE IN THE TREATMENT OF AUTOIMMUNE INFLAMMATORY DISEASE” (Venantius Limited, priority 2012, published 2015)

Test system: IL2 release from Jurkat cells
Assay: Effect of compounds on IL-2 secretion in T lymphocytes (Jurkat 6.1, anti-CD3/anti-CD28 stimulated, ELISA)
Format: cell-based
Conditions: for effect on IL2 release, in words: 1 and 10 μM; for activity at 1 µM / activity at 10 µM: Homo sapiens, Jurkat, read-out: IL2 release as percentage of anti-CD3/CD28 stimulated release in presence of DMSO, Mean; for activity at 1 µM / activity at 10 µM / IL-2 production, absolute values: 24 h; for IL-2 production, absolute values: 30 min pre-treatment, DMSO control 320.67 (plate 2), 338.25 (plate 3)
Description: The T cell line Jurkat 6.1 (ATCC) was used. Cells were pre-treated for 30 min with 1 μM or 10 μM of the respective compound and then stimulated with plate-bound anti-CD3 (BD Pharmingen) and anti-CD28 (AnCell). DMSO was used as vehicle control. […] After 24 hs the supernatant was collected and IL-2 secretion was measured by ELISA.
Compounds were prepared by dissolution in DMSO to yield final concentrations of 1 and 10 μg/ml

Structure (SMILES)	effect on IL2 release, in words	activity at 1 µM [%]	activity at 10 µM [%]	IL-2 production, absolute values (compound 1 uM) [pg/mL]	IL-2 production, absolute values (compound 10 uM) [pg/mL]
CC(C)C[C@H](N)C(=O)O[C@H]1c2ccccc2C[C@]1(Cc1ccc(C(=O)N(C)C)cc1)C1=Cc2ccccc2C1 [Compound 38, (1R,2R)-2-[4-(dimethylcarbamoyl)benzyl]-2,3-dihydro-1H,1′H-2,2′-biinden-1-yl L-leucinate]	inactive	107	62.7	226.75	268.63
CC(C)C[C@H](N)C(=O)O[C@@H]1c2ccccc2C[C@@]1(Cc1ccc(C(=O)O)cc1)C1=Cc2ccccc2C1 [Compound 28, 4-{[(1′S,2′S)-1′-(L-leucyloxy)-1′,3′-dihydro-1H,2′H-2,2′-biinden-2′-yl]methyl}benzoic acid]	–	–	–	214.75	135.63
CN(C)C(=O)c1ccc(C[C@@]2(C3=Cc4ccccc4C3)Cc3ccccc3[C@H]2O)cc1 [Compound 23, 4-{[(1′S,2′S)-1′-hydroxy-1′,3′-dihydro-1H,2′H-2,2′-biinden-2′-yl]methyl}-N,N-dimethylbenzamide]	–	–	–	191.44	193.56
NC(=O)c1ccc(C[C@@]2(C3=Cc4ccccc4C3)Cc3ccccc3[C@H]2O)cc1 [Compound 20, 4-{[(1′S,2′S)-1′-hydroxy-1′,3′-dihydro-1H,2′H-2,2′-biinden-2′-yl]methyl}benzamide]	–	–	–	174.11	141.78
CCOC(=O)c1ccc(C[C@@]2(C3=Cc4ccccc4C3)Cc3ccccc3[C@H]2OC(=O)[C@@H](N)CC(C)C)cc1 [Compound 40, ethyl 4-(((1S,2S)-1-(((S)-2-amino-4-methylpentanoyl)oxy)-2,3-dihydro-1H,1′H-[2,2′-biinden]-2-yl)methyl)benzoate]	–	82.6	20.9	84.86	12.71
CCOC(=O)c1ccc(C[C@@]2(C3=Cc4ccccc4C3)Cc3ccccc3[C@H]2O)cc1 [Compound 18, ethyl 4-(((1S,2S)-1-hydroxy-2,3-dihydro-1H,1′H-[2,2′-biinden]-2-yl)methyl)benzoate]	–	–	–	190.78	79.56
CC(C)C[C@H](N)C(=O)O[C@H]1c2ccccc2C[C@]1(Cc1ccc(C(=O)O)cc1)C1=Cc2ccccc2C1 [Compound 24, 4-{[(1′R,2′R)-1′-(L-leucyloxy)-1′,3′-dihydro-1H,2′H-2,2′-biinden-2′-yl]methyl}benzoic acid]	–	–	–	202.13	149.63
CC[C@H](C)[C@H](N)C(=O)O[C@H]1c2ccccc2C[C@]1(Cc1ccc(C(=O)O)cc1)C1=Cc2ccccc2C1 [Compound 26, 4-{[(1′R,2′R)-1′-(L-isoleucyloxy)-1′,3′-dihydro-1H,2′H-2,2′-biinden-2′yl]methyl}benzoic acid]	–	–	–	202.25	192.63
CC(C)C[C@H](N)C(=O)O[C@@H]1c2ccccc2C[C@@]1(Cc1ccc(C(=O)NCCO)cc1)C1=Cc2ccccc2C1 [Compound 43, (1S,2S)-2-{4-[(2-Hydroxyethyl)carbamoyl]benzyl}-2,3-dihydro-1H,1′H-2,2′-biinden-1-yl leucinate]	greatest inhibition of IL2 release	72.4	8.4	97.57	12.79
CNC(=O)c1ccc(C[C@]2(C3=Cc4ccccc4C3)Cc3ccccc3[C@@H]2OC(=O)[C@@H](N)CC(C)C)cc1 [Compound 37, (1R,2R)-2-[4-(methylcarbamoyl)benzyl]-2,3-dihydro-1H,1′H-2,2′-biinden-1-yl L-leucinate]	–	99.2	50.2	275.50	79.00
